Source: ChEMBL document CHEMBL1152860, “Synthesis and antiproliferative activity of 3-amino-N-phenyl-1H-indazole-1-carboxamides” (2009)
The source made the active and inactive calls. No cut-off for these calls is given here.

What was measured:
SN12C = test: Growth inhibition of human SN12C cells after 48 hrs by SRB assay; format: functional
SK-MEL-5 = test: Growth inhibition of human SK-MEL-5 cells after 48 hrs by SRB assay; format: functional; settings: SK-MEL-5, 48 h
SNB-19 = test: Growth inhibition of human SNB19 cells after 48 hrs by SRB assay; format: functional; settings: SNB-19, 48 h
OVCAR-5 = test: Growth inhibition of human OVCAR5 cells after 48 hrs by SRB assay; format: functional; settings: OVCAR-5, 48 h
SNB-75 = test: Growth inhibition of human SNB75 cells after 48 hrs by SRB assay; format: functional; settings: SNB-75, 48 h
HT-29 = test: Growth inhibition of human HT-29 cells after 48 hrs by SRB assay; format: functional; settings: HT-29, 48 h
U-251 = test: Growth inhibition of human U251 cells after 48 hrs by SRB assay; format: functional; settings: U-251, 48 h
NCI/ADR-RES = test: Growth inhibition of human NCI/ADR-RES cells after 48 hrs by SRB assay; format: functional
SF-268 = test: Growth inhibition of human SF268 cells after 48 hrs by SRB assay; format: functional; settings: SF-268, 48 h
T47D = test: Growth inhibition of human T47D cells after 48 hrs by SRB assay; format: functional
M14 = test: Growth inhibition of human M14 cells after 48 hrs by SRB assay; format: functional; settings: M14, 48 h
K562 [1] = test: Cell cycle arrest in human K562 cells assessed as accumulation at S phase at 140 uM after 24 hrs using propidium iodide staining by flow cytometry; format: functional, cell-based
IGROV-1 = test: Growth inhibition of human IGROV1 cells after 48 hrs by SRB assay; format: functional; settings: IGROV-1, 48 h
MDA-MB-231 = test: Growth inhibition of human MDA-MB-231 cells after 48 hrs by SRB assay; format: functional; settings: MDA-MB-231, 48 h
NCI-H460 = test: Growth inhibition of human NCI-H460 cells after 48 hrs by SRB assay; format: functional; settings: NCI-H460, 48 h
SK-MEL-28 = test: Growth inhibition of human SK-MEL-28 cells after 48 hrs by SRB assay; format: functional; settings: SK-MEL-28, 48 h
HCC 2998 = test: Growth inhibition of human HCC2998 cells after 48 hrs by SRB assay; format: functional; settings: HCC 2998, 48 h
EKVX = test: Growth inhibition of human EKVX cells after 48 hrs by SRB assay; format: functional
HOP-92 = test: Growth inhibition of human HOP92 cells after 48 hrs by SRB assay; format: functional; settings: HOP-92, 48 h
MDA-MB-435 = test: Growth inhibition of human MDA-MB-435 cells after 48 hrs by SRB assay; format: functional; settings: MDA-MB-435, 48 h
KM12 = test: Growth inhibition of human KM12 cells after 48 hrs by SRB assay; format: functional; settings: KM12, 48 h
NCI-H322M = test: Growth inhibition of human NCI-H322M cells after 48 hrs by SRB assay; format: functional
786-0 = test: Growth inhibition of human 786-0 cells after 48 hrs by SRB assay; format: functional; settings: 786-0, 48 h
BT-549 = test: Growth inhibition of human BT549 cells after 48 hrs by SRB assay; format: functional; settings: BT-549, 48 h
COLO 205 = test: Growth inhibition of human COLO205 cells after 48 hrs by SRB assay; format: functional; settings: COLO 205, 48 h
Malme-3M = test: Growth inhibition of human MALME-3M cells after 48 hrs by SRB assay; format: functional
HOP-62 = test: Growth inhibition of human HOP62 cells after 48 hrs by SRB assay; format: functional; settings: HOP-62, 48 h
RXF 393 = test: Growth inhibition of human […] cells after 48 hrs by SRB assay; format: functional; settings: RXF 393, 48 h
CAKI-1 = test: Growth inhibition of human Caki1 cells after 48 hrs by SRB assay; format: functional; settings: CAKI-1, 48 h
HCT-15 = test: Growth inhibition of human HCT15 cells after 48 hrs by SRB assay; format: functional; settings: HCT-15, 48 h
SK-OV-3 = test: Growth inhibition of human SKOV3 cells after 48 hrs by SRB assay; format: functional; settings: SK-OV-3, 48 h
K562 [2] = test: Growth inhibition of human K562 cells after 48 hrs by SRB assay; format: functional; settings: K562, 48 h
K562 [3] = test: Cell cycle arrest in human K562 cells assessed as accumulation at G2/M phase at 140 uM after 24 hrs using propidium iodide staining by flow cytometry; format: functional, cell-based
NCI-H226 = test: Growth inhibition of human NCI-H226 cells after 48 hrs by SRB assay; format: functional; settings: NCI-H226, 48 h
UACC-62 = test: Growth inhibition of human UACC62 cells after 48 hrs by SRB assay; format: functional; settings: UACC-62, 48 h
OVCAR-3 = test: Growth inhibition of human OVCAR-3 cells after 48 hrs by SRB assay; format: functional; settings: OVCAR-3, 48 h
NCI-H23 = test: Growth inhibition of human NCI-H23 cells after 48 hrs by SRB assay; format: functional; settings: NCI-H23, 48 h
OVCAR-4 = test: Growth inhibition of human OVCAR4 cells after 48 hrs by SRB assay; format: functional; settings: OVCAR-4, 48 h
UO-31 = test: Growth inhibition of human UO31 cells after 48 hrs by SRB assay; format: functional; settings: UO-31, 48 h
SR = test: Growth inhibition of human SR cells after 48 hrs by SRB assay; format: functional
HL-60(TB) = test: Growth inhibition of human HL-60(TB) cells after 48 hrs by SRB assay; format: functional; settings: HL-60, 48 h
ACHN = test: Growth inhibition of human ACHN cells after 48 hrs by SRB assay; format: functional
HCT-116 = test: Growth inhibition of human HCT116 cells after 48 hrs by SRB assay; format: functional; settings: HCT-116, 48 h
DU-145 = test: Growth inhibition of human DU145 cells after 48 hrs by SRB assay; format: functional; settings: DU-145, 48 h
SW-620 = test: Growth inhibition of human SW620 cells after 48 hrs by SRB assay; format: functional; settings: SW-620, 48 h
SF-295 = test: Growth inhibition of human SF295 cells after 48 hrs by SRB assay; format: functional; settings: SF-295, 48 h
PC-3 = test: Growth inhibition of human PC3 cells after 48 hrs by SRB assay; format: functional; settings: PC-3, 48 h
UACC-257 = test: Growth inhibition of human UACC257 cells after 48 hrs by SRB assay; format: functional; settings: UACC-257, 48 h
SF-539 = test: Growth inhibition of human SF539 cells after 48 hrs by SRB assay; format: functional; settings: SF-539, 48 h
RPMI-8226 = test: Growth inhibition of human RPMI8226 cells after 48 hrs by SRB assay; format: functional; settings: RPMI-8226, 48 h
TK-10 = test: Growth inhibition of human TK10 cells after 48 hrs by SRB assay; format: functional; settings: TK-10, 48 h
OVCAR-8 = test: Growth inhibition of human OVCAR8 cells after 48 hrs by SRB assay; format: functional; settings: OVCAR-8, 48 h
MCF7 = test: Growth inhibition of human MCF7 cells after 48 hrs by SRB assay; format: functional; settings: MCF7, 48 h
MOLT-4 = test: Growth inhibition of human MOLT4 cells after 48 hrs by SRB assay; format: functional; settings: MOLT-4, 48 h
LOX IMVI = test: Growth inhibition of human LOXIMVI cells after 48 hrs by SRB assay; format: functional
NCI-H522 = test: Growth inhibition of human NCI-H522 cells after 48 hrs by SRB assay; format: functional; settings: NCI-H522, 48 h
A498 = test: Growth inhibition of human A498 cells after 48 hrs by SRB assay; format: functional; settings: A498, 48 h
SK-MEL-2 = test: Growth inhibition of human SK-MEL-2 cells after 48 hrs by SRB assay; format: functional; settings: SK-MEL-2, 48 h
[4] = Growth inhibition of human Hs 578T cells after 48 hrs by SRB assay; format: functional
A549 = test: Growth inhibition of human A549 cells after 48 hrs by SRB assay; format: functional; settings: A549, 48 h
[5] = read-out: LC50 (the source's name)

Molecule `O=C(Nc1cc(C(F)(F)F)ccc1F)Nc1n[nH]c2ccccc12` has a GI50 (SN12C) of over 100 µM, a GI50 (SK-MEL-5) of over 100 µM and a GI50 (SNB-19) of over 100 µM. For the same molecule, the GI50 (OVCAR-5) was over 100 µM, the GI50 (SNB-75) was 40.1 µM and the GI50 (HT-29) was over 100 µM. The GI50 (U-251) was over 100 µM, the GI50 (NCI/ADR-RES) was over 100 µM and the GI50 (SF-268) was over 100 µM. It also gave a GI50 (T47D) of 215 nM, a TGI (T47D) of over 100 µM and a CC50 (T47D; [5]) of over 100 µM. The GI50 (M14) was over 100 µM, the Activity (K562 [1]) was “Active” and the GI50 (IGROV-1) was 758 nM. For the same molecule, the TGI (IGROV-1) was over 100 µM, the CC50 (IGROV-1; [5]) was over 100 µM and the GI50 (MDA-MB-231) was over 100 µM. It also gave a GI50 (NCI-H460) of over 100 µM, a GI50 (SK-MEL-28) of over 100 µM and a GI50 (HCC 2998) of over 100 µM. It also gave a GI50 (EKVX) of over 100 µM, a GI50 (HOP-92) of over 100 µM and a GI50 (MDA-MB-435) of over 100 µM. It also gave a GI50 (KM12) of over 100 µM, a GI50 (NCI-H322M) of over 100 µM and a GI50 (786-0) of over 100 µM. For the same molecule, the GI50 (BT-549) was over 100 µM, the GI50 (COLO 205) was over 100 µM and the GI50 (Malme-3M) was over 100 µM. For the same molecule, the GI50 (HOP-62) was over 100 µM, the GI50 (RXF 393) was over 100 µM and the GI50 (CAKI-1) was over 100 µM. It also gave a GI50 (HCT-15) of over 100 µM, a GI50 (SK-OV-3) of over 100 µM and a GI50 (K562 [2]) of over 100 µM. The Activity (K562 [3]) was “Active”, the GI50 (NCI-H226) was over 100 µM and the GI50 (UACC-62) was over 100 µM. The GI50 (OVCAR-3) was over 100 µM, the GI50 (NCI-H23) was over 100 µM and the GI50 (OVCAR-4) was over 100 µM. It also gave a GI50 (UO-31) of over 100 µM, a GI50 (SR) of 55.4 µM and a GI50 (HL-60(TB)) of over 100 µM. The GI50 (ACHN) was over 100 µM, the GI50 (HCT-116) was over 100 µM and the GI50 (DU-145) was over 100 µM. For the same molecule, the GI50 (SW-620) was over 100 µM, the GI50 (SF-295) was over 100 µM and the GI50 (PC-3) was over 100 µM. The GI50 (UACC-257) was over 100 µM, the GI50 (SF-539) was over 100 µM and the GI50 (RPMI-8226) was over 100 µM. For the same molecule, the GI50 (TK-10) was over 100 µM, the GI50 (OVCAR-8) was over 100 µM and the GI50 (MCF7) was 18.2 µM. It also gave a GI50 (MOLT-4) of over 100 µM, a GI50 (LOX IMVI) of over 100 µM and a GI50 (NCI-H522) of over 100 µM. The GI50 (A498) was over 100 µM, the GI50 (SK-MEL-2) was over 100 µM and the GI50 [4] was over 100 µM. It also gave a GI50 (A549) of over 100 µM.
